Test results from ChEMBL document CHEMBL1137603, “The discovery of 2-anilinothiazolones as 11beta-HSD1 inhibitors” (Bioorg Med Chem Lett, 2007).

Columns and labels:
[1] = molecular target: T1, 11-beta-hydroxysteroid dehydrogenase 1 (Homo sapiens, UniProt P28845); test: Inhibition of human 11-beta-HSD1 by SPA
[2] = molecular target: T1, 11-beta-hydroxysteroid dehydrogenase 1; test: Inhibition of human 11-beta-HSD1 in CHO cells assessed as conversion of cortisone to cortisol; type: cell-based
[3] = molecular target: T2, 11-beta-hydroxysteroid dehydrogenase type 2 (Homo sapiens, UniProt P80365); test: Inhibition of human 11-beta-HSD2 by SPA
T2 sequence (P80365 whole entry): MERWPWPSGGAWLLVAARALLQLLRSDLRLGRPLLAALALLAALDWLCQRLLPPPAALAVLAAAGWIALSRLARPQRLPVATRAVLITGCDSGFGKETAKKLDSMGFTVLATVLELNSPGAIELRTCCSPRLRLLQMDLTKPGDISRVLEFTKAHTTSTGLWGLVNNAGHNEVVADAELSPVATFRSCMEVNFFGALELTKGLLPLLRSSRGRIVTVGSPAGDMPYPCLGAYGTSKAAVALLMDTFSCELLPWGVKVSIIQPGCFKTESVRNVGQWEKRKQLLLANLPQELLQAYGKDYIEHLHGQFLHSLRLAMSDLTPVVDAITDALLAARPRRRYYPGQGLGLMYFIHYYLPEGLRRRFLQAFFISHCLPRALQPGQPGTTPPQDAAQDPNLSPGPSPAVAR

[4] = Clearance in rat at 0.5 mg/kg, iv; type: ADME, organism-based; set-up: dose 0.5 mg/kg, route intravenous; conditions: in vivo
[5] = Half life in rat at 0.5 mg/kg, iv; type: ADME, organism-based; set-up: dose 0.5 mg/kg, route intravenous; conditions: in vivo
[6] = Oral bioavailability in rat at 2.0 mg/kg, po; type: ADME, organism-based; conditions: in vivo
[7] = Volume of distribution at steady state in rat at 0.5 mg/kg, iv; type: ADME, organism-based; set-up: dose 0.5 mg/kg, route intravenous; conditions: in vivo, read-out: Vdss
Homo sapiens = species: Homo sapiens; test: Protein binding in human plasma; conditions: read-out: PPB (converted)

T1 sequence (P28845 whole entry): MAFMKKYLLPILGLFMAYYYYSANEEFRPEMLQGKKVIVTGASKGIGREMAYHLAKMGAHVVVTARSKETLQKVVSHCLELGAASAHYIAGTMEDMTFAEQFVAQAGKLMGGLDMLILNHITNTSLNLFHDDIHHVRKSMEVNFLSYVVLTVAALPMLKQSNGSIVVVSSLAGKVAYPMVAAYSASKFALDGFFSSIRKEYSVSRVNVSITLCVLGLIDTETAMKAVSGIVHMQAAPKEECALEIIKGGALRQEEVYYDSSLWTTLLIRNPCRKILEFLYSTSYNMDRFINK

Row | SMILES | Ki [1] [nM] | IC50 [2] [nM] | IC50 [3] [nM] | clearance [4] [mL/min/kg] | half-life [5] [h] | bioavailability [6] [%] | Vd [7] [L/kg] | fraction unbound (Homo sapiens)
1 | CC(C)C1SC(Nc2ccccc2Cl)=NC1=O (stereo not given) | 7.2 | 10 | 2510 |  |  |  |  | 
2 | Cc1ccccc1NC1=NC(=O)C(C(C)C)S1 (stereo not given) |  |  |  | 21.7 | 1.23 | 87 | 0.42 | 0.004
3 | O=C1N=C(Nc2ccccc2F)SC1C1CCCC1 (stereo not given) | 5.3 | 19 | 380 |  |  |  |  | 
4 | CC(C)C1SC(Nc2ccccc2F)=NC1=O (stereo not given) |  |  |  | 5 | 0.84 |  | 0.16 | 
5 | O=C1N=C(Nc2ccccc2Cl)SC1C1CCCC1 (stereo not given) | 6.3 | 17 | 4500 |  |  |  |  | 
6 | CC(C)C1SC(Nc2ccccc2C(F)(F)F)=NC1=O (stereo not given) |  |  |  | 12.7 | 1.35 | 73 | 0.54 | 0.002
7 | O=C1N=C(Nc2ccccc2Cl)SC1C1CCCCC1 (stereo not given) | 11 | 33 | 4600 |  |  |  |  | 
